The record followed here is ChEMBL document CHEMBL5696442, “Discovery of type II inhibitors of TGFβ-activated kinase 1 (TAK1) and mitogen-activated protein kinase kinase kinase kinase 2 (MAP4K2)” (J Med Chem, 2015).

In test [1] the target is Cyclin-dependent kinase 2 (Homo sapiens) (UniProt P24941). Description: Inhibition of CDK2 Lys2 labeling site harbouring DLKPQNLLINTEGAIK in human Huh-7 cells at 1 uM by KiNativ Profiling analysis relative to control. The class given is cell-based.
Test [2] deals with Serine/threonine-protein kinase 4 (Homo sapiens) (UniProt Q13043). Description: Inhibition of MST1 Lys1 labeling site harbouring AIHKETGQIVAIKQVPVESDLQEIIK in human Huh-7 cell lysate at 1 uM by KiNativ Profiling analysis relative to control.
Test [3] concerns the target DNA-PK/Ku70/Ku85 (Homo sapiens) (UniProt P78527+P12956+P13010). Description: Inhibition of DNAPK ATP labeling site harbouring KGGSWIQEINVAEKNWYPR in human Huh-7 cells at 1 uM by KiNativ Profiling analysis relative to control. The format is cell-based.
Test [4] addresses SRSF protein kinase 1 (Homo sapiens) (UniProt Q96SB4). Description: Inhibition of SRPK1 (unknown origin) at 1 uM by Ambit Kinomescan binding assay relative to control.
For test [5], the target named is Fibroblast growth factor receptor 2 (Homo sapiens) (UniProt P21802). The test is described as follows: Inhibition of FGFR2 (unknown origin) at 1 uM by Ambit Kinomescan binding assay relative to control; values are per cent of control.
Test [6] relates to Proto-oncogene tyrosine-protein kinase receptor Ret (Homo sapiens), P07949 [M918T]. Description: Inhibition of RET M918T mutant (unknown origin) at 1 uM by Ambit Kinomescan binding assay relative to control; values are per cent of control.
Test [7] has as its target Casein kinase II subunit alpha (Homo sapiens) (UniProt P68400). Description: Inhibition of CSNK2A1 (unknown origin) at 1 uM by Ambit Kinomescan binding assay relative to control; values are per cent of control.
The target is the same in test [8]. Description: Inhibition of CK2a1 in human Huh-7 cells at 1 uM by KiNativ Profiling analysis relative to control. The class given is cell-based.
For test [9], the target named is T1, Serine/threonine-protein kinase greatwall (Homo sapiens) (UniProt Q96GX5).
T1 sequence (whole entry): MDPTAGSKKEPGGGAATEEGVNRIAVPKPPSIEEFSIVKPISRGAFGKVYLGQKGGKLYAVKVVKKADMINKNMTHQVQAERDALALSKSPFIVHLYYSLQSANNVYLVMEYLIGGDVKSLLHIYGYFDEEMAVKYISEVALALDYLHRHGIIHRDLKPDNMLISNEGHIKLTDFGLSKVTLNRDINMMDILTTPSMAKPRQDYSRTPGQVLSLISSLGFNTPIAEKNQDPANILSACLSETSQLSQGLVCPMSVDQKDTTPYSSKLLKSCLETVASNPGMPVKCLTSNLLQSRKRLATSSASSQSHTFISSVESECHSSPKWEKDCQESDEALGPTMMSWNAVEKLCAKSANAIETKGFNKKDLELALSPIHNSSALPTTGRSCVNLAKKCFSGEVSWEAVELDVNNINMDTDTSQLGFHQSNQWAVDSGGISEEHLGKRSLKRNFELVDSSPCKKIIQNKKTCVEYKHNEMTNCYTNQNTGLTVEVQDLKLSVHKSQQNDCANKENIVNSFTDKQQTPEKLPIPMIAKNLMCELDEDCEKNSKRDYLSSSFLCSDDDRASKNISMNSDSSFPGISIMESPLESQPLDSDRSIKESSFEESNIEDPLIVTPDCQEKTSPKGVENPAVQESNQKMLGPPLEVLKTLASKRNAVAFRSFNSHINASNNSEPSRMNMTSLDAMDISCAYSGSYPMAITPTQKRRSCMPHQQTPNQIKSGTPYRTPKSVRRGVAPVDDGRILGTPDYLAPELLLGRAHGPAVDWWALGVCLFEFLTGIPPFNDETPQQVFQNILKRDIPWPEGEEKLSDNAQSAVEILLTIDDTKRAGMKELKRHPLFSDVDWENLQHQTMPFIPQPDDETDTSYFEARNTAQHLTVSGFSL
The test is described as follows: Inhibition of MASTL K2 labeling site in human Huh-7 cells at 1 uM by KiNativ Profiling analysis relative to control. The format is cell-based.

For test [10], the target named is Serine/threonine-protein kinase N2 (Homo sapiens) (UniProt Q16513). The test is described as follows: Inhibition of PKN2 K2 labeling site in human Huh-7 cells at 1 uM by KiNativ Profiling analysis relative to control. The class given is cell-based.
Test [11] has as its target Tyrosine-protein kinase JAK1 (Homo sapiens) (UniProt P23458). The test is described as follows: Inhibition of JAK1 Domain 2 ACT labeling site harbouring IGDFGLTKAIETDKEYYTVK in human Huh-7 cells at 1 uM by KiNativ Profiling analysis relative to control. The format is cell-based.
Test [12] deals with T2, Myotonin-protein kinase (Homo sapiens) (UniProt Q09013).
T2 sequence (whole entry): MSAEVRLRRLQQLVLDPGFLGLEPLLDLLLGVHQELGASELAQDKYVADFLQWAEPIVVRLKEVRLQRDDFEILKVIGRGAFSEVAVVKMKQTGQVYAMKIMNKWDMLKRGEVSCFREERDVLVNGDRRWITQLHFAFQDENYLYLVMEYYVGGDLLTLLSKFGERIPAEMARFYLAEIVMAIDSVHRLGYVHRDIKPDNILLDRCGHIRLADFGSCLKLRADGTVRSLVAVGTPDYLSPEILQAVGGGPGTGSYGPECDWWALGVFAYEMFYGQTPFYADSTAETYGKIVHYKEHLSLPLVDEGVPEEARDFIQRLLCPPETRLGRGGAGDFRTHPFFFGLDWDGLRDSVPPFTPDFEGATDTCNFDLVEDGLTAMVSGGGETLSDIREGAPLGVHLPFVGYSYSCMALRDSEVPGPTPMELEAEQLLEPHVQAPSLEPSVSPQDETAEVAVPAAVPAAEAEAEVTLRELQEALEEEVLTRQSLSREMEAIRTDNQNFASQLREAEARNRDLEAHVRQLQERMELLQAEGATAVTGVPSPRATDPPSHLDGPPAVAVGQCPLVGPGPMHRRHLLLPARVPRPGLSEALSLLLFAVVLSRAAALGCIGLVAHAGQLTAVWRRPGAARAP
The test is described as follows: Inhibition of DMPK1 K2 labeling site in human Huh-7 cells at 10 uM by KiNativ Profiling analysis relative to control. The format is cell-based.

Test [13] has as its target MAP/microtubule affinity-regulating kinase 3 (Homo sapiens) (UniProt P27448). Description: Inhibition of MARK3 K1 labeling site in human Huh-7 cells at 10 uM by KiNativ Profiling analysis relative to control. The class given is cell-based.
Test [14] has as its target Ribosomal protein S6 kinase alpha-1 (Homo sapiens) (UniProt Q15418). Description: Inhibition of RSK1 Domain 2 K2 labeling site in human Huh-7 cells at 10 uM by KiNativ Profiling analysis relative to control. The format is cell-based.

Molecules are shown by their SMILES.

By inhibition is commonly meant the change of the read-out against control, counted positive when it falls. One may read the residual activity as the signal under treatment as a percentage of the control signal. A low value points to a large loss of activity.

Sequence of Casein kinase II subunit alpha (Homo sapiens) (P68400 whole entry, looked up): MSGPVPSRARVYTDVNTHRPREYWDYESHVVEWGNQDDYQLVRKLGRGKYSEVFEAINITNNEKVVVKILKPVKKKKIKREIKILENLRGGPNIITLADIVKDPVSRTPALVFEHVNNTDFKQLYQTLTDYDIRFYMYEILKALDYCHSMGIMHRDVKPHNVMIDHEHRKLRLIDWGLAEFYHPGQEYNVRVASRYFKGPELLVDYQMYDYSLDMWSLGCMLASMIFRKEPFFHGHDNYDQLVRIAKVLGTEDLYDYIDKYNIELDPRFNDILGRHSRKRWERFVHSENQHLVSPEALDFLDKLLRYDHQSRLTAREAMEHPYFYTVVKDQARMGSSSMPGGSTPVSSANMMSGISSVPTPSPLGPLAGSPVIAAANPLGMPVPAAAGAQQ
Sequence of MAP/microtubule affinity-regulating kinase 3 (Homo sapiens) (P27448 whole entry, looked up, the tested form may be a part): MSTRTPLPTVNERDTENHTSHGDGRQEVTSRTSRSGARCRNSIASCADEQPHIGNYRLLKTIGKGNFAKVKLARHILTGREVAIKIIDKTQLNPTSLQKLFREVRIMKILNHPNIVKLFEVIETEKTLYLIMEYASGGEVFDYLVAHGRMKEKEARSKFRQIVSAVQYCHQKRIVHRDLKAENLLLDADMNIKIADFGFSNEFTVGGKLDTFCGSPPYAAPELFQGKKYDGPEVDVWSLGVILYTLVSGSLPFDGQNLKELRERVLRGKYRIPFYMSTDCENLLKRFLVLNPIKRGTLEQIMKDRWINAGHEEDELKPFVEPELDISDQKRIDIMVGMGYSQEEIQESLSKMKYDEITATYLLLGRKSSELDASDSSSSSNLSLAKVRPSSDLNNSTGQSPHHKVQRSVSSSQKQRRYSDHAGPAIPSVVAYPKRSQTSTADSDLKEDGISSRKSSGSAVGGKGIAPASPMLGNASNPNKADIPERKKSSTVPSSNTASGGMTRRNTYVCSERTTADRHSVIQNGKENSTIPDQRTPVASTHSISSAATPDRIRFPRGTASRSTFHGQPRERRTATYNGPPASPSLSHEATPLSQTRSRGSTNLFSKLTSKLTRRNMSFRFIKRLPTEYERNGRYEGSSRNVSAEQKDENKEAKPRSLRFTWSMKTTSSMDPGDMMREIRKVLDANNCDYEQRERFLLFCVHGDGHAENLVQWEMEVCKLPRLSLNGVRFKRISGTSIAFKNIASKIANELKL
Sequence of Fibroblast growth factor receptor 2 (Homo sapiens) (P21802 22-821 limits assumed): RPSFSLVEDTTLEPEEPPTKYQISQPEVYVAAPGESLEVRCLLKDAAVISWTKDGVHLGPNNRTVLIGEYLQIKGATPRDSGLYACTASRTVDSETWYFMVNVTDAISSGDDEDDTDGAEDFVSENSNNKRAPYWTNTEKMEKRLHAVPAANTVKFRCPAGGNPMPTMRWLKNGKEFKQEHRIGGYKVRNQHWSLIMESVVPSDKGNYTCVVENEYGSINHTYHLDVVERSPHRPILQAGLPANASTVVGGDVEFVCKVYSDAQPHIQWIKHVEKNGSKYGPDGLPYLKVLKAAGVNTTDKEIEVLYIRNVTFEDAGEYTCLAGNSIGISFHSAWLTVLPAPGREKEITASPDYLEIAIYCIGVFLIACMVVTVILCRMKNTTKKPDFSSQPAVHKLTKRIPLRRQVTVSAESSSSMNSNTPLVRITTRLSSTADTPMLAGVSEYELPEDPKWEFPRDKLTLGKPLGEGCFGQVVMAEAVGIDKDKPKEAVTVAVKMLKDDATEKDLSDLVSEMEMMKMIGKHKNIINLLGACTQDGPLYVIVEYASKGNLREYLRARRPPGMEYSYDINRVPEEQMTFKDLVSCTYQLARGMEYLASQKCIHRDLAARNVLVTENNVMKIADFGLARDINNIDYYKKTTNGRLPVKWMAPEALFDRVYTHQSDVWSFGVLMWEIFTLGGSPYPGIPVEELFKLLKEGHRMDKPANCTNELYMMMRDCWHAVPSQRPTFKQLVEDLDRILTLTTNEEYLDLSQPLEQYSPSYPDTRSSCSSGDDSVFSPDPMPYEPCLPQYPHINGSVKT
Sequence of Ribosomal protein S6 kinase alpha-1 (Homo sapiens) (Q15418 whole entry, the tested form may be a part): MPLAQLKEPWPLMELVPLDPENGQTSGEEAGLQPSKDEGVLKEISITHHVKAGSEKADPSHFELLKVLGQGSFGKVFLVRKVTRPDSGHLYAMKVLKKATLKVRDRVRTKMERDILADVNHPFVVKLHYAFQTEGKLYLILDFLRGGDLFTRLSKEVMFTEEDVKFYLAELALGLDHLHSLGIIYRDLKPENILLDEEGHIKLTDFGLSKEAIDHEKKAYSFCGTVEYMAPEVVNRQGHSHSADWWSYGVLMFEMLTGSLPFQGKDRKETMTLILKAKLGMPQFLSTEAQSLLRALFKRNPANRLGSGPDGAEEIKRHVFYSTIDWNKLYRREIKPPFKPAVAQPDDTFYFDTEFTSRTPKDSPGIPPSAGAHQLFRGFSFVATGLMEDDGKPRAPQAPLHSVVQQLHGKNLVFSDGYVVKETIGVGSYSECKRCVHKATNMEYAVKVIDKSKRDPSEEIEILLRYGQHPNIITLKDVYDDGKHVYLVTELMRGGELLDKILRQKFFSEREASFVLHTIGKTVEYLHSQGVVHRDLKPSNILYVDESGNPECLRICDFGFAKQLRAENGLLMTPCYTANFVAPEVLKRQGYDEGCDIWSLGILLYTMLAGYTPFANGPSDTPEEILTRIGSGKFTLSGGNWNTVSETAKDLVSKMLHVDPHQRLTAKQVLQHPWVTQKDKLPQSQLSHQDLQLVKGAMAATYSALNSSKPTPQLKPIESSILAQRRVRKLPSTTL
Sequence of Serine/threonine-protein kinase 4 (Homo sapiens) (Q13043 whole entry, looked up): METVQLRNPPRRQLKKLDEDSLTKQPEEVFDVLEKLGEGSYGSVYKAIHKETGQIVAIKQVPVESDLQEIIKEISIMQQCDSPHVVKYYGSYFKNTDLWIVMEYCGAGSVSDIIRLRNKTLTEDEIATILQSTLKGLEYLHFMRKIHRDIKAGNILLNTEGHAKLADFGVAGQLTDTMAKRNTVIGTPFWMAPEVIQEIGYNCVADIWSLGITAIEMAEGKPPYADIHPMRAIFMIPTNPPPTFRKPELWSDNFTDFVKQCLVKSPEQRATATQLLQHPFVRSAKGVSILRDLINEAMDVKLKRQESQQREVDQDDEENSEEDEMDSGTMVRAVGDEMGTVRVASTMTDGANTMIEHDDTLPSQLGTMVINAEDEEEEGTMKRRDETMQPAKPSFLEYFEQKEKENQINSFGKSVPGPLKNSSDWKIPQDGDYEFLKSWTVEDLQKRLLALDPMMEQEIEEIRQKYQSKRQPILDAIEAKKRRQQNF
Sequence of Tyrosine-protein kinase JAK1 (Homo sapiens) (P23458 whole entry, the tested form may be a part): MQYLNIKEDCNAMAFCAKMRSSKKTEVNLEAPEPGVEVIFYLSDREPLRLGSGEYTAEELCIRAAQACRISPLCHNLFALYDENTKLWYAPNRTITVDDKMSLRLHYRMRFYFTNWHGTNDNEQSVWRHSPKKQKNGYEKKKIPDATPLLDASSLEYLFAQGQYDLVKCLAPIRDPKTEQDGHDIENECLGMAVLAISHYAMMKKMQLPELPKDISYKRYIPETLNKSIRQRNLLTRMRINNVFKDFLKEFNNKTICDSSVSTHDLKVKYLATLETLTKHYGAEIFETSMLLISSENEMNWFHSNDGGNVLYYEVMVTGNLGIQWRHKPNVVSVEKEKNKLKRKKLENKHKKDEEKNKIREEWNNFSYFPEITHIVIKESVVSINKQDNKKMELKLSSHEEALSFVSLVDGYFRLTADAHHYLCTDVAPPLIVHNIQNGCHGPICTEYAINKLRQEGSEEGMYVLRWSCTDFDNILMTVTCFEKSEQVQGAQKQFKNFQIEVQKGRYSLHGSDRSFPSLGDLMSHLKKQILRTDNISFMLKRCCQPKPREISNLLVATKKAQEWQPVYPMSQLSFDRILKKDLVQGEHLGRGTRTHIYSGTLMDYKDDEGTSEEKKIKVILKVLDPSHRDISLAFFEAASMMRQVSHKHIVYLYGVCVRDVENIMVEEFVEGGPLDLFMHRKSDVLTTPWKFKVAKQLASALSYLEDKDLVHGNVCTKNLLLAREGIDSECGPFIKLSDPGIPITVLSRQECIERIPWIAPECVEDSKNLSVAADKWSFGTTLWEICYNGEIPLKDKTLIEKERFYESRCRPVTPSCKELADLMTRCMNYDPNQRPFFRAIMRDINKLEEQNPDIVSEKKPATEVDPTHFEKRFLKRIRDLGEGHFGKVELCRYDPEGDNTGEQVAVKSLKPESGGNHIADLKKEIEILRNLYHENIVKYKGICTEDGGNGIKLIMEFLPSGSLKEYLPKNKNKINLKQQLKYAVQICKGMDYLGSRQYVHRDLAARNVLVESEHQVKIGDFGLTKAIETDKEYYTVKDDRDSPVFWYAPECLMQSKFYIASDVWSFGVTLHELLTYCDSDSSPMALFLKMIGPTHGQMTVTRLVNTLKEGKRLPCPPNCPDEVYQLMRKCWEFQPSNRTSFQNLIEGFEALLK
Sequence of SRSF protein kinase 1 (Homo sapiens) (Q96SB4 whole entry): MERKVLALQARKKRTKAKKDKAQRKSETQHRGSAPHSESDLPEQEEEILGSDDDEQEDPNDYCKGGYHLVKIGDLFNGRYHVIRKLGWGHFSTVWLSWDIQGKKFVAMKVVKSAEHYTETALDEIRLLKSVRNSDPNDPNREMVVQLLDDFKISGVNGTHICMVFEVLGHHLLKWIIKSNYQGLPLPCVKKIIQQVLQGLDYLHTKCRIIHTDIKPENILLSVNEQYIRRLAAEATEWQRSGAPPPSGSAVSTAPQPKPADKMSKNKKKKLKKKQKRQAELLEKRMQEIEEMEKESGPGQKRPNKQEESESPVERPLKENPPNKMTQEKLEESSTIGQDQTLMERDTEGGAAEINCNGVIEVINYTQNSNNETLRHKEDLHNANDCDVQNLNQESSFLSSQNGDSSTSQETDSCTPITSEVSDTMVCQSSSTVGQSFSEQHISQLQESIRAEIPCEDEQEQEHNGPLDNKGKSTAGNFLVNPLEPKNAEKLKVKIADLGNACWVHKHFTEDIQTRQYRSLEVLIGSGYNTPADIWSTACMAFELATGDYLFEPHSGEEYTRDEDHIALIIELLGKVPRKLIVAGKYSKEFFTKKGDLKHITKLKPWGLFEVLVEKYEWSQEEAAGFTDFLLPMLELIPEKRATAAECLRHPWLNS

Consider `CNc1cc(Oc2cc(C(=O)Nc3cc(N4CCN(C)CC4)cc(C(F)(F)F)c3)ccc2C)ncn1`, for which the inhibition was -0.4% in test [1], 12.8% in test [2] and 68.1% in test [3].

Turning to `CCN1CCN(Cc2ccc(NC(=O)c3ccc(C)c(/C=C/c4cnc5[nH]ccc5c4OC)c3)cc2C(F)(F)F)CC1`, in [4], the inhibition was 28%. For the same molecule, the percent of control in test [5] is 5.4%. In addition, the % of control in [6] was 0.05%. In test [7], the residual activity stood at 100%.

On to `CCN1CCN(Cc2ccc(NC(=O)c3ccc(C)c(Oc4ccnc5[nH]ccc45)c3)cc2C(F)(F)F)CC1`, for which the inhibition was 16% in [8]; -2.1% in test [9]; -6.3% in test [10]; -6.4% in test [11]; 2.8% in [12]; -7.2% in test [13]. For the same molecule, the inhibition in [14] is 8%.
